Measured values from patent US9951052B2, “Inhibitors of the renal outer medullary potassium channel” (Merck Sharp & Dohme Corp., priority 2013, dated 2018).

Molecular target: T1, hROMK (hKir1.1) (Homo sapiens, UniProt P48048)
T1 construct: expressed in transfected cells
T1 sequence (P48048 1-391): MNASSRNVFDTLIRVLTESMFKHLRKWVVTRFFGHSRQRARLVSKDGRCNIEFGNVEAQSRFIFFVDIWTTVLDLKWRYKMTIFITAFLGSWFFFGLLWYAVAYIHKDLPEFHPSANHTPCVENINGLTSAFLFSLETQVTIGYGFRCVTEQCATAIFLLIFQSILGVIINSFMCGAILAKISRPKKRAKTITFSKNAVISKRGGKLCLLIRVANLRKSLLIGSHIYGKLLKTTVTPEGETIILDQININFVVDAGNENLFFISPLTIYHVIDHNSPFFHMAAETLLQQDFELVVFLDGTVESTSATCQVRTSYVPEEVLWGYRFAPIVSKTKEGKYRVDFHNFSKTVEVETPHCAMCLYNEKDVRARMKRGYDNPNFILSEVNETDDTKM
Experiment: Thallium Flux Assay (ROMK channel functional thallium flux, FLIPR-Tetra)
Type: cell-based
Conditions: HEK293 cells stably expressing hROMK (hKir1.1); 30 min incubation with compound; HCl salt run where final product was an HCl salt
Protocol: The following Thallium Flux Assay was performed on each of the final product compounds in the Examples. When the final product of an Example was an HCl salt, the salt was run in the Assay.
Cell Culture Conditions—HEK293 cells stably expressing hROMK (hKir1.1) were grown at 37° C. in a 10% CO2 humidified incubator in complete growth media: Dulbecco's Modified Eagle Medium supplemented with non-essential amino acids, Penicillin/Streptomycin/Glutamine, G418 and FBS. At >80% confluency, aspirate the media from the flask and rinse with 10 mL Calcium/Magnesium-free PBS. Add 5 mL of 1× trypsin (prepared in Ca/Mg Free PBS) to T-225 flask and return flask to 37° C./CO2 incubator for 2-3 minutes. To dislodge the cell, gently bang the side of the flask with your hand. Triturate the cells completely and then transfer the cells to 25 mL complete media. Centrifuge at 1,500 rpm for 6 min followed by resuspension in complete growth media and determine cell concentration. For typical re-seeding, 4E6 cells/T-225 flask will attain >80% confluency in 4 days. Under ideal growth conditions and appropriate tissue culture practices, this cell line is stable for 40-45 passages.
FluxOR Kit Components (Invitrogen F10017)
• FluxOR™ Reagent (Component A) • FluxOR™ Assay Buffer (Component B)—10× Concentrate • PowerLoad™ Concentrate (Component C)—100× Concentrate • Probenecid (Component D)—Lyophilized sample is kept at −20° C. Water soluble, 100× after solubilization in 1 mL water. Store at 4° C. • FluxOR™ Chloride-free Buffer (Component E)—5× Concentrate • Potassium sulfate (K2SO4) Concentrate (Component F)—125 mM in water. Store at 4° C. • Thallium sulfate (T12SO4) Concentrate (Component G)—50 mM in water. Store at 4° C. • DMSO (dimethyl sulfoxide, Component H)—1 mL (100%) Reagent Preparation: FluxOR Working Solutions • 1000× FluxOR™ Reagent: Reconstitute a vial of component A in 100 μl DMSO; Mix well; Store 10 μl aliquots at −20° C. • 1× FluxOR™ Assay Buffer: Dilute Component B 10-fold with water; Adjust pH to 7.4 with Hepes/NaOH; Filter and store at 4° C. • Probenecid/Assay Buffer: 100 mL of 1× FluxOR™ Assay Buffer; 1 mL of reconstituted component D; Store at 4° C. • Loading Buffer (per microplate): 10 μl 1000× FluxOR™ Reagent; 100 μl component C; 10 mL Probenecid/Assay Buffer • Compound Buffer (per microplate): 20 mL Probenecid/Assay Buffer; 0.3 mM ouabain (10 mM ouabain in water can be stored in amber bottle/aluminum foil at room temperature); Test compound • 1× FluxOR™ Chloride-Free Buffer: Prepare 1× working solution in water. Can be stored at room temperature • Stimulant Buffer (prepared at 5× final concentration in 1× FluxOR™ Chloride-Free Buffer): 7.5 mM Thallium sulfate and 0.75 mM Potassium sulfate (to give a final assay concentration of 3 mM Thallium/0.3 mM Potassium). Store at 4° C. when not in use.
Assay protocol—The ROMK channel functional thallium flux assay is performed in 384 wells, using the FLIPR-Tetra instrument. HEK-hKir1.1 cells are seeded in Poly-D-Lysine microplates and kept in a 37° C.-10% CO2 incubator overnight. On the day of the experiment, the growth media is replaced with the FluxOR™ reagent loading buffer and incubated, protected from light, at ambient temperature (23-25° C.) for 90 min. The loading buffer is replaced with assay buffer±test compound followed by 30 min incubation at ambient temperature, where the Thallium/Potassium stimulant is added to the microplate.
• 1. Seed HEK-hKir1.1 cells (50 μl at 20,000 cells/well) in 384-well PDL coated Microplates • 2. Allow cells to adhere overnight in humidified 37° C./10% CO2 incubator • 3. Completely remove cell growth media from microplate and replace with 25 μl loading buffer • 4. Incubate Microplate at room temperature, protected from light, for 90 min • 5. Remove loading buffer and replace with 25 μl 1× Assay Buffer±test compound. • 6. Incubate microplate at room temperature, protected from light, for 30 min • 7. […]

SMILES	IC50 [nM]
Cc1nsc(NC(=O)C2CCN(C[C@H](O)c3ccc4c(c3C)COC4=O)CC2)n1 [Example 31, (R)-1-(2-hydroxy-2-(4-methyl-1-oxo-1,3-dihydroisobenzofuran-5-yl)ethyl)-N-(3-methyl-1,2,4-thiadiazol-5-yl)piperidine-4-carboxamide]	160
O=C1OCc2cc(CCN3CCC(C(=O)Nc4ccc5cn[nH]c5c4)CC3)ccc21 [Example 18, N-(1H-indazol-6-yl)-1-(2-(1-oxo-1,3-dihydroisobenzofuran-5-yl)ethyl)piperidine-4-carboxamide]	510
COc1nsc(N(C)C(=O)C2CCN(C[C@H](O)c3ccc4c(c3C)COC4=O)CC2)n1 [Example 45, (R)-1-(2-hydroxy-2-(4-methyl-1-oxo-1,3-dihydroisobenzofuran-5-yl)ethyl)-N-(3-methoxy-1,2,4-thiadiazol-5-yl)-N-methylpiperidine-4-carboxamide]	250
O=C1OCc2cc(CCN3CCC(C(=O)Nc4ccc5sncc5c4)CC3)ccc21 [Example 20, N-(benzo[d]isothiazol-5-yl)-1-(2-(1-oxo-1,3-dihydroisobenzofuran-5-yl)ethyl)piperidine-4-carboxamide]	470
Cc1c([C@@H](O)CN2CC3C(C2)C3C(=O)Nc2ccc(-n3cnnn3)cn2)ccc2c1COC2=O (stereo partly drawn) [Example 60, N-(5-(1H-tetrazol-1-yl)pyridin-2-yl)-3-((R)-2-hydroxy-2-(4-methyl-1-oxo-1,3-dihydroisobenzofuran-5-yl)ethyl)-3-azabicyclo[3.1.0]hexane-6-carboxamide]	470
Cc1c([C@@H](O)CN2CCC(C(=O)Nc3cnoc3)CC2)ccc2c1COC2=O [Example 27, (R)-1-(2-hydroxy-2-(4-methyl-1-oxo-1,3-dihydroisobenzofuran-5-yl)ethyl)-N-(isoxazol-4-yl)piperidine-4-carboxamide]	140
CCN(C(=O)C1CCN(C[C@H](O)c2ccc3c(c2C)COC3=O)CC1)c1ccns1 [Example 43, (R)-N-ethyl-1-(2-hydroxy-2-(4-methyl-1-oxo-1,3-dihydroisobenzofuran-5-yl)ethyl)-N-(isothiazol-5-yl)piperidine-4-carboxamide]	50
Cc1c([C@@H](O)CN2CCC(C(=O)N(C)c3ccns3)CC2)ccc2c1COC2=O [Example 41, 1-[(2R)-2-hydroxy-2-(4-methyl-1-oxo-1,3-dihydro-2-benzofuran-5-yl)ethyl]-N-(isothiazol-5-yl)-N-methylpiperidine-4-carboxamide]	10

Other lines, results leading:

IC50 [nM]	SMILES
150	COc1cc(NC(=O)C2CCN(C[C@H](O)c3ccc4c(c3C)COC4=O)CC2)ccc1C#N [Example 26, (R)-N-(4-cyano-3-methoxyphenyl)-1-(2-hydroxy-2-(4-methyl-1-oxo-1,3-dihydroisobenzofuran-5-yl)ethyl)piperidine-4-carboxamide]
200	Cc1c([C@@H](O)CN2CCC(F)(C(=O)N3CCc4cnccc43)CC2)ccc2c1COC2=O [Example 49, (R)-5-(2-(4-(2,3-dihydro-1H-pyrrolo[3,2-c]pyridine-1-carbonyl)-4-fluoropiperidin-1-yl)-1-hydroxyethyl)-4-methylisobenzofuran-1(3H)-one]
60	Cc1c([C@@H](O)CN2CCC(F)(C(=O)Nc3ccns3)CC2)ccc2c1COC2=O [Example 47, 4-fluoro-1-[(2R)-2-hydroxy-2-(4-methyl-1-oxo-1,3-dihydro-2-benzofuran-5-yl)ethyl]-N-(isothiazol-5-yl)piperidine-4-carboxamide]
220	Cc1cc(NC(=O)C2(O)CCN(C[C@H](O)c3ccc4c(c3C)COC4=O)CC2)sn1 [Example 39, (R)-4-hydroxy-1-(2-hydroxy-2-(4-methyl-1-oxo-1,3-dihydroisobenzofuran-5-yl)ethyl)-N-(3-methylisothiazol-5-yl)piperidine-4-carboxamide]
260	Cc1c([C@@H](O)CN2CCC(F)(C(=O)Nc3ccc(C#N)cn3)CC2)ccc2c1COC2=O [Example 52, (R)-N-(5-cyanopyridin-2-yl)-4-fluoro-1-(2-hydroxy-2-(4-methyl-1-oxo-1,3-dihydroisobenzofuran-5-yl)ethyl)piperidine-4-carboxamide]
